Data as given in patent US9290688B2, “Alkaline microbial enhanced oil recovery” (GEO FOSSIL FUELS, LLC, priority 2011, dated 2016).
Numbered stars: 1 amine (or outer) side, 2 acyl side, 3 side chain; on linkers, the order of the positions; unused ones are H or OH. Bridge positions count the residues as written; N and C are the ends. Square brackets hold non-standard residues; d marks the D form. Peptide text beside a SMILES is read from it. X1 = CC(C)CCCCCCCCC[C@H](CC(=O)[*:1])O[*:2]

Assays:
[1] = test system: Rhodococcus rhodochrous ATCC #53968; assay: Growth of bacteria on crude oil with inhibitors, optical density at 600 nm; assay type: cell-based
Description: (§1) An oil degrading microorganism was used to evaluate the use of chemical inhibitors to slow the utilization of hydrocarbons in petroleum. In a non-limiting example, three different chemical compounds that have been reported to inhibit beta-oxidation were tested in oil and culture medium on a petroleum sample with a strain of Rhodococcus rhodochrous ATCC #53968 in m9 minimal medium. To test the ability of each chemical inhibitor to slow the consumption of fatty acids a culture of bacteria was grown on a crude oil sample for a period of three days with crude petroleum oil as the only carbon source. Four separate flasks were set up, each with an oil to aqueous media ratio of 1 to 5 (10 ml of crude oil to 50 ml of culture medium). Each of the three chemical inhibitors was added to a separate flask and a fourth flask was allowed to digest without the addition of a chemical inhibitor as a control. The flasks were shaken at a room temperature of about 25° C. under aerobic conditions. The progress of the microbial digestion was monitored by the optical density at 600 nm and by visual inspection of the brown oil color in the aqueous phase. Three days after the addition of inhibitors, or a total of six days of incubation with oil, a small sample of oil (0.31 g) was removed. A second sample of the same size was remover after another 6 days. The organic acids were extracted from each oil sample with 1% NaOH in 70% ethanol. The samples were shaken vigorously for one minute. The aqueous extract material was then extracted with hexane to remove any trace of oil. The samples of extracted organic acids were then dried under vacuum and converted to methyl esters with BF3 in methanol.
Digestion with the bacteria increases the total amount of carboxylic acids in all the samples. The digestions with the chemical beta-oxidation inhibitors produce about the same or a little more total methyl ester peaks than the bacterial digestion without an inhibitor. […] The later eluting peaks increase at a faster rate with the inhibitors than without. For example, the 12 day sample with no inhibitor increase from 5.9 to 45.9 area units for peaks up to 13 minutes. The sample with the acrylic acid inhibitor has an increase of from 5.9 to 43.7 area units, which is less than without inhibitor. The later eluting peaks increase from 3.6 to 14.3 without the inhibitor, but with acrylic acid the later peak areas increase to 22.5 area units. […] After 6 days of digestion the optical density had reached 2.23 for the uninhibited digestion as compared to 0.49 for the acrylic acid inhibited sample and 1.84 for the 2-bromooctanoic acid and 2.4 for the 2-bromohexadeconoic acid. After 12 days of digestion the uninhibited sample had reached 4.0 and the acrylic acid had increased to 1.7 and 2.2 and 2.4 for the other two inhibitors. Therefore, by this experimental analysis one can determine which inhibitors increase the carboxylic acid content or the acid number of the oil fastest with the least amount of oil consumption. The oil consumption can be determined by quantitation of remaining oil or by growth of bacteria were oil is the only carbon source. It appears that all the inhibitors helped reduce the utilization of fatty acids and the consumption of oil while producing an increase in acid number.

[2] = test system: Rhodococcus rhodochrous ATCC #53968; assay: End of digestion: oil and aqueous volumes, acid number by alcoholic alkaline extraction and back titration; assay type: cell-based; conditions: one ml of oil, alcoholic alkaline extraction, back titration; acrylic acid value per gram of oil emulsion
Description: as §1, with “The samples were shaken vigorously for one minute. The aqueous extract material was then extracted with hexane to remove any trace of oil. The samples of extracted organic acids were then dried under vacuum and converted to methyl esters with BF3 in methanol.” left out
At the end of the experiment the oil and water were separated and the volume determined. […] This would have under reported the amount of methyl esters determined by GC analysis. The amount of aqueous phase was determined to be 22.5 ml for the acrylic acid sample and 46 ml, 48 ml and 47.5 ml for the others. […] The calculated acid number for the uninhibited digestion was 5 mg of KOH per gram. The other two inhibited digestions were analyzed to be 4.5 mg for the 2-bromooctanoic acid and 6.5 for the 2-bromohexadecanoic acid inhibited digestion. The undigested oil was determined to have an acid number of 6.5 mg of KOH by analysis of a one gram sample and a 10 gram sample. […]

[3] = test system: Rhodococcus rhodochrous ATCC #53968; assay: Digestion of Red River crude oil with and without beta-oxidation inhibitors; GC of methyl esters of extracted organic acids; assay type: cell-based; conditions: for Total GC (all peaks integrated by the GC integrator): 0.31 g oil sample; for conv. To umoles FA: approximately 1.0 micromoles per 100 area units; for Cal. AN (calculated acid number): estimated from GC areas
Description: as §1
The mixtures of methyl esters were analyzed by GC (gas chromatography) using a HP (Hewlett Packard) 5890 GC with an Agilent Technologies capillary column, HP-5 (crosslinked 5% PH) ME Siloxane 0.25 micrometer coating with a length of 30 meter and a column ID (internal diameter) of 0.32 mm. Helium was used as a carrier gas. Detection was by a FID detector and integration of peak areas was done with a HP 3396 integrator. The temperature program held an initial temperature of 40° C. for 1.0 minutes then increased at 15 degrees per minute to 280° C., and finally held at a temperature of 280° C. for 5 minutes. To quantify the amount of organic acids extracted by this procedure, a stock solution of 2-bromooctanoate and 2-bromohexadecanoate were added to a sample of undigested Red River crude petroleum oil and then extracted by the same procedure as the bio-digested oil samples. The average area for theses two organic acids was used to estimate the amount of organic acids in micromoles per area unit determined by the GC integrator. The number was calculated to be approximately 1.0 micromoles per 100 area units. The area units for each of the GC peaks are list in Table 2. This number was used to estimate the micromoles organic acids extracted from the oil. This estimate was used to calculate the number of mg of KOH that equaled the number of micromoles of organic acid estimated. This number is listed on the last row in Table 2 as the calculated AN (acid number) for each digestion experiment. These estimated numbers are only based on organic acids that are hydrophobic enough to stay in the oil phase and not move into the aqueous phase. Organic acids measured include the carboxylic acids made by the bacteria and that have been secreted out of the cell and have migrated back to the oil phase. They are also hydrocarbons that are small enough to be extracted into the ethanol aqueous extraction solvent. This number is likely to be less than the total acid number (TAN), a measure often used to evaluate crude petroleum for amenability to alkaline waterflooding.
The earlier eluting peaks are believed to represent methyl ester of lighter hydrocarbon carboxylic acids and the later eluting peaks are believed to represent methyl ester of the heavier organic acids. […]

3-ketothiolase I = target: T1, 3-ketothiolase I (Rattus norvegicus, UniProt P13437); conditions: cited from earlier work
T1 sequence (P13437 1-397): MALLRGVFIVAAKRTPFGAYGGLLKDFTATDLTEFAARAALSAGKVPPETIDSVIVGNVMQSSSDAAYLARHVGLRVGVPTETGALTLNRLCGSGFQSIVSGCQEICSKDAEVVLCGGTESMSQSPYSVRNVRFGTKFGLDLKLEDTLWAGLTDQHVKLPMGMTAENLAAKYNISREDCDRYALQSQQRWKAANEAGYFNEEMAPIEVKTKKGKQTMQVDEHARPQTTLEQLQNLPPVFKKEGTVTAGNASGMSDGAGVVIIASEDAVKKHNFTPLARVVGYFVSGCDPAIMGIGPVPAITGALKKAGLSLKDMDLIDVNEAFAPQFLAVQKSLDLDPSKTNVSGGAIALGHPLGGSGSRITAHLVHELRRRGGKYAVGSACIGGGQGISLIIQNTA

3-ketoacyl-CoA thiolase = conditions: cited from earlier work
[4] = 100, pH 10
Description: Production of rhamnolipid biosurfactant was tested in engineered strains using the oil spreading assay (Fang et al DOE report 2007). Cells were grown three days at 30° C. in YCA-10 medium (per liter: 25 g NaCl, 5 g yeast extract, 5 g casamino Acids, 5 g Na2CO3, 1 g sodium glutamate, 1 g NH4Cl, 1 g KH2PO4, 1 g KCl, 200 mg MgSO4.7H2O, 36 mg FeCl2.4H2O, 0.36 mg MnCl.4H2O, adjusted to pH10.0 with KOH) containing 5 μg/ml chloramphenicol. For oil spreading assays, 50 mls of distilled water was dispensed into a 15 cm petri dish and 50 μl of petroleum oil was added to the surface of the water. A 10 μl drop of medium or culture suspension was added to the surface of the oil, and the diameter of the clear zone (if any) was measured after 2 minutes.

## CCCCCCCCCCCCCCC(Br)C(=O)O (stereo not shown) [Br C16, 2-bromohexadecanoic acid]
[1]; after 6 days of digestion, crude oil only carbon source
  optical density: 2.4
[1]; after 12 days of digestion
  optical density: 2.4
[2]
  final analysis acid number: 6.5 mg KOH per gram
[3]; 6 days
  GC peak area, retention time 4.5: 0.226 area units
  GC peak area, retention time 5.6: 1.099 area units
  GC peak area, retention time 6.6: 3.049 area units
  GC peak area, retention time 7.6: 2.553 area units
  GC peak area, retention time 8.2: 0.705 area units
  GC peak area, retention time 8.5: 1.395 area units
  GC peak area, retention time 9.4: 1.131 area units
  GC peak area, retention time 10.2: 1.11 area units
  GC peak area, retention time 11: 4.105 area units
  GC peak area, retention time 11.5: 2.76 area units
  GC peak area, retention time 12.5: 4.8 area units
  GC peak area, retention time 13.2: 1.26 area units
  GC peak area, retention time 13.6: 1.997 area units
  GC peak area, retention time 13.8: 3.211 area units
  SubTotal peak area, later peaks eluting after 13 minutes: 6.468 area units
  SubTotal peak area, peaks eluting before 13 minutes: 22.933 area units
  Total GC area For 1 ml: 1385
  Total of all selected peaks: 29.401 area units
  Total GC (all peaks integrated by the GC integrator): 429.5 area units
  conv. To umoles FA: 13.85 µmol
  Cal. AN (calculated acid number): 0.78 mg of KOH
[3]; 12 days
  GC peak area, retention time 4.2: 0.354 area units
  GC peak area, retention time 4.5: 0.237 area units
  GC peak area, retention time 5.6: 0.624 area units
  GC peak area, retention time 6.6: 1.498 area units
  GC peak area, retention time 7.6: 1.246 area units
  GC peak area, retention time 8.2: 0.602 area units
  GC peak area, retention time 8.5: 0.624 area units
  GC peak area, retention time 9.4: 0.476 area units
  GC peak area, retention time 10.2: 0.475 area units
  GC peak area, retention time 11: 1.663 area units
  GC peak area, retention time 11.5: 3.922 area units
  GC peak area, retention time 12.3: 3.095 area units
  GC peak area, retention time 13: 2.495 area units
  GC peak area, retention time 13.2: 3.584 area units
  GC peak area, retention time 13.4: 3.088 area units
  GC peak area, retention time 13.6: 2.779 area units
  GC peak area, retention time 13.8: 4.626 area units
  GC peak area, retention time 14.2: 0.762 area units
  SubTotal peak area, later peaks eluting after 13 minutes: 17.334 area units
  SubTotal peak area, peaks eluting before 13 minutes: 14.816 area units
  Total GC area For 1 ml: 828
  Total of all selected peaks: 32.15 area units
  Total GC (all peaks integrated by the GC integrator): 256.8 area units
  conv. To umoles FA: 8.28 µmol
  Cal. AN (calculated acid number): 0.46 mg of KOH

## CCCCCCC(Br)C(=O)O (racemic) [DL-2-bromooctanoate]
3-ketothiolase I
  effect on 3-ketothiolase I: complete and irreversible inactivation

## O=C(O)c1ccccc1O [Salicylic acid]
3-ketoacyl-CoA thiolase
  effect on 3-ketoacyl-CoA thiolase in P. fluorescens: inhibit

## CC(C)CCCCCCCCC[C@@H]1CC(=O)N[C@@H](CCC(=O)O)C(=O)N[C@@H](CC(C)C)C(=O)N[C@H](CC(C)C)C(=O)N[C@@H](C(C)C)C(=O)N[C@@H](CC(=O)O)C(=O)N[C@H](CC(C)C)C(=O)N[C@@H](CC(C)C)C(=O)O1 [Surfactin (purified)] (EL[dL]VD[dL]L; linker N-C via X1)
[4]
  Clear zone diameter: 13 mm
